Data as given in PMC8170916, “Sublingual AKBA Exerts Antidepressant Effects in the Aβ-Treated Mouse Model” (Biomolecules, 2021).

Tests used:
noradrenaline (NA) = test: Noradrenaline quantification in PFC and HIPP by HPLC with electrochemical detection; assay type: in vivo; details: mice 7 days after icv Aβ 4 µM, sublingual AKBA 5 mg/kg 30 min earlier
Method: (§1) All behavioral experiments were conducted at 5 or 30 min after sublingual administrations of AKBA or vehicle in either SHAM or Aβ-treated mice. Based upon behavioral outcomes observed, neurochemical and biochemical quantifications were performed 30 min after AKBA or vehicle administration in either SHAM or Aβ-treated mice.
(§2) Anesthetized animals were sacrificed by cervical dislocation. Brains were immediately removed and kept on ice for dissection of PFC and HIPP, according to the atlas of Paxinos and Franklin. Tissues were frozen and stored at −80 °C until analyses were carried out. Samples (PFC and HIPP) were homogenized (1:10 w/v) at 4 °C using a PBS buffer containing a 1:100 protease and phosphatase inhibitor cocktail (HALT inhibitors, Thermo Fisher Scientific, Cleveland, OH, USA) for biochemical analyses or perchloric acid 0.1 M for neurochemical analyses. Homogenates were centrifuged at 13,000× g at 4 °C for 20 min, and supernatants were used for further determinations.
5-HT, noradrenaline (NA), and KYN levels were measured in the PFC and HIPP of mice by HPLC coupled with an electrochemical detector (Ultimate ECD, Thermo Scientific Dionex, Milan, Italy) as already reported. Separation was performed by a LC18 reverse phase column (Kinetex, 150 mm × 3.0 mm, ODS 5 μm; Phenomenex, Castel Maggiore-Bologna, Italy). The detection was accomplished by a thin layer amperometric cell (Thermo Scientific Dionex, Milan, Italy) with a 5 mm diameter glassy carbon electrode at a working potential of 400 mV (5-HT and NA) or 0.750 mV (KYN) vs. Pd. The mobile phase consisted of an aqueous buffer containing 75 mM NaH2PO4, 1.7 mM octane sulfonic acid, 0.3 mM EDTA, and acetonitrile 10%, buffered at pH 3.0. […] GLU concentrations were determined by HPLC coupled with fluorescence detection (emission length 460 nm; excitation length 340 nm), as previously published. […] Results were analyzed by Borwin software (version 1.50; Jasco, Cremella, Italy) and the amino acid concentration was expressed as µM. All data were normalized for total area weight and were expressed as concentration/mg of tissue.

NF-kB p65 = test: Western blotting quantification of NF-kB p65 in PFC and HIPP; assay type: in vivo; details: mice 7 days after icv Aβ 4 µM, sublingual AKBA 5 mg/kg 30 min earlier
Method: as §1, §2
The total amount of proteins was measured in homogenates by using Pierce BCA Assay (Thermo Fisher Scientific, Cleveland, OH, USA). Forty µg of the total lysate protein were separated by SDS-PAGE precast gels (Bio-Rad Laboratories Inc., Segrate (MI), Italy), transferred onto nitrocellulose membranes (Bio-Rad Laboratories Inc, Segrate (MI), Italy) and then blocked for 1 h in blocking buffer (SigmaAldrich, Milan, Italy). Rabbit polyclonal antibody against GFAP (Dako Products, USA; 1:2000), rabbit monoclonal antibody against CD11b (Abcam, Cambridge, MA, USA; ab133357, 1:1000) and mouse monoclonal antibody against NF-kB p65 (Santa Cruz Biotechnology, Dallas, Texas, USA; 1:2000) were used to incubate the membranes overnight at 4 °C. After HRP-conjugated specific antibody incubation, ECL reagent (Bio-Rad Laboratories Inc., Segrate (MI), Italy) was added to the immune complex and chemiluminescence was detected by ChemiDoc MP system (Bio-Rad Laboratories Inc., Segrate (MI), Italy). Optical densities of the bands were measured using ImageJ software (http://rsb.info.nih.gov/ij/ accessed on 15 March 2021) and normalized against bands relative to β-actin (1:5000, Abcam, Cambridge, UK).

CC(=O)O[C@@H]1CC[C@@]2(C)[C@@H](CC[C@]3(C)[C@@H]2C(=O)C=C2[C@@H]4[C@@H](C)[C@H](C)CC[C@]4(C)CC[C@]23C)[C@@]1(C)C(=O)O [AKBA, 3-O-acetyl-11-keto-β-boswellic acid]
NA levels in the HIPP (noradrenaline (NA); HIPP): further increase compared to SHAM mice | NA levels in the PFC (noradrenaline (NA); PFC): significantly increased NA levels | NF-kB p65 content in the HIPP (optical density normalized to actin) (NF-kB p65; HIPP): prevented such an increase | NF-kB p65 levels in the PFC (optical density normalized to actin) (NF-kB p65; PFC): prevented such an increase
